In publication PMC10937419, “Exploring pyrrolidinyl-spirooxindole natural products as promising platforms for the synthesis of novel spirooxindoles as EGFR/CDK2 inhibitors for halting breast cancer cells” (Frontiers in Chemistry, 2024):
Where two headings read alike, the source gives them in different places.

Key:
MDA-MB-231 cells = test: MTT cytotoxicity assay, MDA-MB-231 breast cancer cells; assay type: cell-based
Method: (§1) All cells were incubated at 37 °C in 5% carbon dioxide atmosphere (NuAire). Cells were plated at a density of 5x10^4 cells in triplicates in a plate of 96 wells. On the second day, cells were treated with the compounds with concentrations of (0.01, 0.1, 1, 10, and 100 µM). Cell viability was assessed using the MTT assay [6].

MCF-7 cells = test: MTT cytotoxicity assay, MCF-7 breast cancer cells; assay type: cell-based; details: Homo sapiens
Method: as §1

EGFR kinase = biological target: T1, EGFR kinase (Homo sapiens, UniProt P00533); test: EGFR kinase inhibition assay; assay type: biochemical; details: for % remaining EGFR kinase activity (relative to control): signal relative to control
T1 construct: purchased BPS Bioscience Corporation 40321
T1 sequence (P00533 25-1210): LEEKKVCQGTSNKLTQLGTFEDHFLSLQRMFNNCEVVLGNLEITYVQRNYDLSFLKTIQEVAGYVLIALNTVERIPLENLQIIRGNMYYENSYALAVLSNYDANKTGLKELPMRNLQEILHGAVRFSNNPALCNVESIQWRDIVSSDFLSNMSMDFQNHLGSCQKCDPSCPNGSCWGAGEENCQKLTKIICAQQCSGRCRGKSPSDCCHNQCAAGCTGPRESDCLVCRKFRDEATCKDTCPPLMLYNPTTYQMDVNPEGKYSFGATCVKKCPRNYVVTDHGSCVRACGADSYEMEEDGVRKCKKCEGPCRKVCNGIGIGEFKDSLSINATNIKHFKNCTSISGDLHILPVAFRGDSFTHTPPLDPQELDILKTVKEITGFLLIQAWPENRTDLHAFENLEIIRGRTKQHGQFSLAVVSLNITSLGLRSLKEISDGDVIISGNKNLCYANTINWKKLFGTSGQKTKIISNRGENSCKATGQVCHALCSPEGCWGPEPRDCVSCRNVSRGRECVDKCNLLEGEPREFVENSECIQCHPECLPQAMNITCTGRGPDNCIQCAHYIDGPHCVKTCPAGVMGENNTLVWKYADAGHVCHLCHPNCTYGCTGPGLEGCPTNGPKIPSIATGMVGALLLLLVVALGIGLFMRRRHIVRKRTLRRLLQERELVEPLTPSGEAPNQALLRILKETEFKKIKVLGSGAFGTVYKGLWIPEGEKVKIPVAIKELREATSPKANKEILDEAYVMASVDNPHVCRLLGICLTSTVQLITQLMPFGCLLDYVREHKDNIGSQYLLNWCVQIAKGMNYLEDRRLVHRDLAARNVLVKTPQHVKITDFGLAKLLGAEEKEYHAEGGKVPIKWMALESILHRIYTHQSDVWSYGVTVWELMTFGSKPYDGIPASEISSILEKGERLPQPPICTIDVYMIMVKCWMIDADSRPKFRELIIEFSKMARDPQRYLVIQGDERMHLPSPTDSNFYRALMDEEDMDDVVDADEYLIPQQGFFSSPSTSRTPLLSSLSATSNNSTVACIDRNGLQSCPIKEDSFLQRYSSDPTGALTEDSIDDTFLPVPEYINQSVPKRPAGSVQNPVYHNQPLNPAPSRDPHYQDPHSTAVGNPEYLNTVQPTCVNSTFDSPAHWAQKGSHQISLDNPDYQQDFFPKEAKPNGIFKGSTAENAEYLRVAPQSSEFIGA
Method: (§2) Inhibitory activities of 5g, 5l, and 5n were tested against EGFR and CDK-2.
(§3) Plus, Promega, USA) inhibition assay.

CDK-2 kinase = biological target: T2, CDK-2 kinase (Homo sapiens, UniProt P24941); test: CDK-2 kinase inhibition assay (Kinase-Glo Plus); assay type: biochemical; details: for CDK-2 kinase activity remaining (% of control): signal relative to control
T2 construct: purchased not clearly printed (Promega, USA is printed after 'Kinase-Glo Plus'; #79599 is a BPS Bioscience number to my knowledge) 79599
Method: as §2, §3

WISH cells = test: MTT cytotoxicity (safety) assay, normal WISH cells; assay type: cell-based; details: mean ± SD of three independent trials
Method: The cytotoxicity of the synthesized compounds was tested using the MTT assay on breast cancer cells (MCF-7 and MDA-MB-231).
The methods for the Cytotoxic activity ([Mosmann, 1983]; [Nafie et al., 2020a]); EGFR/CDK-2 enzyme inhibition ([Nafie et al., 2022a]); Flow cytometry using Annexin V/PI staining; Gene expression analysis using RT-PCR ([Nafie et al., 2022b]); are amended in the Supplementary Material S1.
as §1, with “Both breast cancer; MCF-7 and MDA-MB-231 and normal (WISH) cells were purchased from the National Research Institute, Egypt, and maintained in RPMI-1640 medium L-Glutamine (Lonza Verviers SPRL, Belgium, cat#12-604F). All” for “All”

[1] = Homo sapiens, MDA-MB-231, MTT assay, mean ± SD of three independent trials, read-out: IC50 ± SD, MDA-MB-231
[2] = MCF7, MTT assay, mean ± SD of three independent trials, read-out: IC50 ± SD, MCF-7
[3] = average of three independent replicates

SMILES: COC(=O)CNC(=O)CN1C(=O)S[C@@]2(C1=O)[C@@H](c1ccc(Cl)cc1)[C@H]1CSCN1[C@@]21C(=O)Nc2ccc(Cl)cc21 [Compound 5a, Methyl (2-((3S,6′S,7′S,7a′S)-5-chloro-7'-(4-chlorophenyl)-2,2″,4″-trioxo-7′,7a′-dihydro-1′H,3′H-dispiro [indoline-3,5′-pyrrolo [1,2-c]thiazole-6′,5″-thiazolidin]-3″-yl)acetyl)glycinate]
- IC50 (MDA-MB-231 cells; [1]): 29.5 ± 1.3 µM
- IC50 (MCF-7 cells; [2]): 5.87 ± 0.5 µM

SMILES: COC(=O)CNC(=O)CN1C(=O)S[C@@]2(C1=O)[C@@H](c1ccc(Cl)cc1)[C@H]1CSCN1[C@@]21C(=O)Nc2cc(Cl)ccc21 [Compound 5b, Methyl (2-((3S,6′S,7′S,7a′S)-6-chloro-7'-(4-chlorophenyl)-2,2″,4″-trioxo-7′,7a′-dihydro-1′H,3′H-dispiro [indoline-3,5′-pyrrolo [1,2-c]thiazole-6′,5″-thiazolidin]-3″-yl)acetyl)glycinate]
- IC50 (MDA-MB-231 cells; [1]): 32.5 ± 0.42 µM
- IC50 (MCF-7 cells; [2]): 7.8 ± 0.32 µM

SMILES: O=C(O)CN1C(=O)S[C@@]2(C1=O)[C@@H](c1ccc(Cl)cc1)[C@H]1CSCN1[C@@]21C(=O)Nc2cc(Cl)ccc21 [Compound 5c, 2-((3S,6′S,7′S,7a′S)-6-chloro-7'-(4-chlorophenyl)-2,2″,4″-trioxo-7′,7a′-dihydro-1′H,3′H-dispiro [indoline-3,5′-pyrrolo [1,2-c]thiazole-6′,5″-thiazolidin]-3″-yl)acetic acid]
- IC50 (MDA-MB-231 cells; [1]): 24.2 ± 1.1 µM
- IC50 (MCF-7 cells; [2]): 15.8 ± 0.4 µM

SMILES: O=C(O)CN1C(=O)S[C@@]2(C1=O)[C@@H](c1ccc(Cl)cc1)[C@H]1CSCN1[C@@]21C(=O)Nc2ccc(F)cc21 [Compound 5d, 2-((3S,6′S,7′S,7a′S)-7'-(4-Chlorophenyl)-5-fluoro-2,2″,4″-trioxo-7′,7a′-dihydro-1′H,3′H-dispiro [indoline-3,5′-pyrrolo [1,2-c]thiazole-6′,5″-thiazolidin]-3″-yl)acetic acid]
- IC50 (MDA-MB-231 cells; [1]): 9.8 ± 0.35 µM
- IC50 (MCF-7 cells; [2]): 19.4 ± 0.4 µM

SMILES: Cc1ccc2c(c1)[C@@]1(C(=O)N2)N2CSC[C@@H]2[C@H](c2ccc(Cl)cc2)[C@]12SC(=O)N(CC(=O)O)C2=O [Compound 5e, 2-((3S,6′S,7′S,7a′S)-7'-(4-Chlorophenyl)-5-methyl-2,2″,4″-trioxo-7′,7a′-dihydro-1′H,3′H-dispiro [indoline-3,5′-pyrrolo [1,2-c]thiazole-6′,5″-thiazolidin]-3″-yl)acetic acid]
- IC50 (MDA-MB-231 cells; [1]): 5.4 ± 0.6 µM
- IC50 (MCF-7 cells; [2]): 9.8 ± 0.7 µM

SMILES: O=C(O)CN1C(=O)S[C@@]2(C1=O)[C@@H](c1ccc(Cl)cc1)[C@H]1CSCN1[C@@]21C(=O)Nc2ccc([N+](=O)[O-])cc21 [Compound 5f, 2-((3S,6′S,7′S,7a′S)-7'-(4-Chlorophenyl)-5-nitro-2,2″,4″-trioxo-7′,7a′-dihydro-1′H,3′H-dispiro [indoline-3,5′-pyrrolo [1,2-c]thiazole-6′,5″-thiazolidin]-3″-yl)acetic acid]
- IC50 (MDA-MB-231 cells; [1]): 35.5 ± 1.1 µM
- IC50 (MCF-7 cells; [2]): 18.5 ± 0.6 µM

SMILES: O=C(CN1C(=O)S[C@@]2(C1=O)[C@@H](c1ccc(Cl)cc1)[C@H]1CSCN1[C@@]21C(=O)Nc2ccc([N+](=O)[O-])cc21)NCCN1CCOCC1 [Compound 5i]
- IC50 (MDA-MB-231 cells; [1]): 35.3 ± 1.2 µM
- IC50 (MCF-7 cells; [2]): 28.7 ± 0.8 µM

SMILES: O=C(CN1C(=O)S[C@@]2(C1=O)[C@@H](c1ccc(Cl)cc1)[C@H]1CSCN1[C@@]21C(=O)Nc2ccc(F)cc21)NCCN1CCOCC1 [Compound 5j]
- IC50 (MDA-MB-231 cells; [1]): 21.4 ± 0.8 µM
- IC50 (MCF-7 cells; [2]): 23.4 ± 1.2 µM

SMILES: O=C(CN1C(=O)S[C@@]2(C1=O)[C@@H](c1ccc(Cl)cc1)[C@H]1CSCN1[C@@]21C(=O)Nc2ccc(Cl)cc21)NCCN1CCOCC1 [Compound 5k]
- IC50 (MDA-MB-231 cells; [1]): 19.5 ± 0.7 µM
- IC50 (MCF-7 cells; [2]): 21.4 ± 0.9 µM

SMILES: COC(=O)[C@@H](NC(=O)CN1C(=O)S[C@@]2(C1=O)[C@@H](c1ccc(Br)cc1)[C@H]1CSCN1[C@@]21C(=O)Nc2cc(Cl)ccc21)C(C)C [Compound 5l, Methyl (2-((3S,6′S,7′S,7a′S)-7'-(4-bromophenyl)-6-chloro-2,2″,4″-trioxo-7′,7a′-dihydro-1′H,3′H-dispiro [indoline-3,5′-pyrrolo [1,2-c]thiazole-6′,5″-thiazolidin]-3″-yl)acetyl)valinate]
- % remaining EGFR kinase activity (relative to control) (EGFR kinase; 0.01 µM, ΔT=30 min): 69.72%
- inhibition at 0.01 µM (EGFR kinase; 0.01 µM, ΔT=30 min): 30.3%
- % remaining EGFR kinase activity (relative to control) (EGFR kinase; 0.1 µM, ΔT=30 min): 60.14%
- inhibition at 0.1 µM (EGFR kinase; 0.1 µM, ΔT=30 min): 39.9%
- % remaining EGFR kinase activity (relative to control) (EGFR kinase; 1 µM, ΔT=30 min): 48.86%
- inhibition at 1 µM (EGFR kinase; 1 µM, ΔT=30 min): 51.1%
- % remaining EGFR kinase activity (relative to control) (EGFR kinase; 2.5 µM, ΔT=30 min): 41.25%
- inhibition at 2.5 µM (EGFR kinase; 2.5 µM, ΔT=30 min): 58.7%
- % remaining EGFR kinase activity (relative to control) (EGFR kinase; 5 µM, ΔT=30 min): 19.88%
- inhibition at 5 µM (EGFR kinase; 5 µM, ΔT=30 min): 80.1%
- % remaining EGFR kinase activity (relative to control) (EGFR kinase; 10 µM, ΔT=30 min): 11.75%
- inhibition at 10 µM (EGFR kinase; 10 µM, ΔT=30 min): 89.9%
- IC50 (EGFR kinase; [3]): 67 ± 1 nM
- % Of EGFR inhibition (EGFR kinase; concentration not given in Table 2, matches 10 µM in the 4th table): 89.8 ± 2.8%
- CDK-2 kinase activity remaining (% of control) (CDK-2 kinase; 0.01 µM, ΔT=30 min): 90.99%
- inhibition at 0.01 µM (CDK-2 kinase; 0.01 µM, ΔT=30 min, read-out: % of inhibition, CDK2): 9.01%
- CDK-2 kinase activity remaining (% of control) (CDK-2 kinase; 0.1 µM, ΔT=30 min): 76%
- inhibition at 0.1 µM (CDK-2 kinase; 0.1 µM, ΔT=30 min, read-out: % of inhibition, CDK2): 24%
- CDK-2 kinase activity remaining (% of control) (CDK-2 kinase; 1 µM, ΔT=30 min): 60.44%
- inhibition at 1 µM (CDK-2 kinase; 1 µM, ΔT=30 min, read-out: % of inhibition, CDK2): 39.6%
- CDK-2 kinase activity remaining (% of control) (CDK-2 kinase; 2.5 µM, ΔT=30 min): 56.06%
- inhibition at 2.5 µM (CDK-2 kinase; 2.5 µM, ΔT=30 min, read-out: % of inhibition, CDK2): 43.9%
- CDK-2 kinase activity remaining (% of control) (CDK-2 kinase; 5 µM, ΔT=30 min): 36.07%
- inhibition at 5 µM (CDK-2 kinase; 5 µM, ΔT=30 min, read-out: % of inhibition, CDK2): 63.9%
- CDK-2 kinase activity remaining (% of control) (CDK-2 kinase; 10 µM, ΔT=30 min): 29.31%
- inhibition at 10 µM (CDK-2 kinase; 10 µM, ΔT=30 min, read-out: % of inhibition, CDK2): 89.4%
- IC50 (CDK-2 kinase; [3]): 345 nM
- IC50 (MDA-MB-231 cells; [1]): 8.45 µM
- IC50 (MDA-MB-231 cells; MTT assay, mean ± SD of three independent trials, listed as C00012, read-out: IC50 ± SD, MDA-MB-231): 8.43 ± 0.6 µM
- IC50 (WISH cells): 43.5 ± 2 µM
- IC50 (MCF-7 cells; [2]): 3.4 ± 0.5 µM

SMILES: COC(=O)[C@@H](NC(=O)CN1C(=O)S[C@@]2(C1=O)[C@@H](c1ccc(Br)cc1)[C@H]1CSCN1[C@@]21C(=O)Nc2ccc(F)cc21)C(C)C [Compound 5m, Methyl (2-((3S,6′S,7′S,7a′S)-7'-(4-bromophenyl)-5-fluoro-2,2″,4″-trioxo-7′,7a′-dihydro-1′H,3′H-dispiro [indoline-3,5′-pyrrolo [1,2-c]thiazole-6′,5″-thiazolidin]-3″-yl)acetyl)valinate]
- IC50 (MDA-MB-231 cells; [1]): 6.3 ± 0.3 µM
- IC50 (MCF-7 cells; [2]): 4.5 ± 0.4 µM

SMILES: COC(=O)CCCNC(=O)CN1C(=O)S[C@@]2(C1=O)[C@@H](c1ccc(Br)cc1)[C@H]1CSCN1[C@@]21C(=O)Nc2cc(Cl)ccc21 [Compound 5o, Methyl 4-(2-((3S,6′S,7′S,7a′S)-7'-(4-bromophenyl)-6-chloro-2,2″,4″-trioxo-7′,7a′-dihydro-1′H,3′H-dispiro [indoline-3,5′-pyrrolo [1,2-c]thiazole-6′,5″-thiazolidin]-3″-yl)acetamido)butanoate]
- IC50 (MDA-MB-231 cells; [1]): 4.32 ± 0.5 µM
- IC50 (MCF-7 cells; [2]): 4.12 ± 0.4 µM

SMILES: C#Cc1cccc(Nc2ncnc3cc(OCCOC)c(OCCOC)cc23)c1 [Erlotinib, reference compound]
- IC50 (MDA-MB-231 cells; Homo sapiens, MDA-MB-231, read-out: IC50 ± SD, MDA-MB-231): 3.25 ± 0.5 µM
- IC50 (MCF-7 cells; MCF7, read-out: IC50 ± SD, MCF-7): 2.14 ± 0.3 µM
